Results on three molecules are retold here after patent US5618795A, “Dibekacin derivatives and arbekacin derivatives active against resistant bacteria, and the production thereof” (Zaidan Hojin Biseibutsu Kagaku Kenkyu Kai, priority 1992, dated 1997).

One series in a line: Solubility in water. It is filed as physicochemical.
The nature of series [1]: Acute toxicity, single intravenous administration to mice. It is filed as in vivo. To be noted: mouse, in vivo; single intravenous administration; mice (ICR-strain, 4 weeks old, female); observations for two weeks; read-out: LD50. An excerpt: 50% Lethal dosages (LD50, observations for two weeks) of the new compounds of this invention as estimated upon single intravenous administration to mice (ICR-strain, 4 weeks old, female) are as follows:
50% Lethal dosages (LD50, observations for two weeks) of the new compounds of general formula (XVI) according to the seventh aspect of this invention as estimated upon single intravenous administration to mice (ICR-strain, 4 weeks old, female) are as follows: […]

Series [2] deals with Providencia rettgeri GN311. Briefly: MIC by standard serial dilution method on Muller-Hinton's agar. Type of series: cell-based. To be noted: GN311, Table 5, 27° C., 18 hours, read-out: MIC. The protocol:
(§1) Minimum growth inhibitory concentrations (MIC) of each of 2"-amino-2"-deoxyarbekacin (Compound Ia), 2"-amino-5,2"-dideoxyarbekacin (Compound Ib), 2"-amino-2"-deoxydibekacin (Compound IIa) and 2"-amino-5,2"-dideoxydibekacin (Compound IIb) against various bacteria (20 strains) and against clinically isolated strains of MRSA (50 strains) were determined by standard serial dilution method on Muller-Hinton's agar medium (as estimated after cultivating at 27° C. for 18 hours), and the test results obtained are shown in TABLE 3 and TABLE 4, respectively.
(§2) Minimum growth inhibitory concentrations (MIC) of each of 2"-amino-5,2"-dideoxy-5-epi-fluoroarbekacin (Compound XVIa) and 2"-amino-5,2"-dideoxy-5-epi-aminoarbekacin (Compound XVIb) against various bacteria (18 strains) and against clinically isolated strains of MRSA (50 strains) were determined by standard serial dilution method on Muller-Hinton's agar medium (as estimated after cultivation at 27° C. for 18 hours), and the test results obtained are shown in TABLE 5 and TABLE 6, respectively.

The subject of another series is Proteus vulgaris OX19. The description is as above. Type of series: cell-based. To be noted: OX19, Table 5, 27° C., 18 hours, read-out: MIC. Here is the method: as §1, §2
Another series concerns S. aureus Smith. The description is as above. Type of series: cell-based. To be noted: Staphylococcus aureus; Table 5; 27° C., 18 hours. Here is the method:
as §1, §2

The next series deals with Salmonella typhi T-63. Described as above. To be noted: Salmonella enterica, Table 5, 27° C., 18 hours. It is filed as cell-based. Here is the method: as §1, §2
In another series the test system is S. epidermidis 109. The description is as above. Type of series: cell-based. To be noted: Staphylococcus epidermidis, 109; Table 5; 27° C., 18 hours; read-out: MIC. The protocol: as §1, §2
For another series, the system named is Serratia marcescens. The series is described as above. Type of series: cell-based. Here is the method: as §1, §2
In the next series the test system is E. coli K-12 ML1629. Described as above. Type of series: cell-based. To be noted: Escherichia coli, K12ML1629, 18 h. The protocol: as §1, §2
The subject of the next series is Bacillus subtilis PCI219. Described as above. It is filed as cell-based. To be noted: Table 5, 27° C., 18 hours. Here is the method:
as §1, §2

The next series has as its system P. aeruginosa TI-13. The series is described as above. To be noted: Pseudomonas aeruginosa, TI13; Table 5; 27° C., 18 hours; read-out: MIC. Type of series: cell-based. The protocol:
as §1, §2

For a further series, the system named is E. coli JR66/W677. The description is as above. To be noted: Escherichia coli, JR66/W677, 18 h. It is filed as cell-based. The protocol:
as §1, §2

The test system of the next series is Escherichia coli NIHJ. The series is described as above. It is filed as cell-based. To be noted: Table 5, 27° C., 18 hours. Here is the method:
as §1, §2

In series [3] the test system is Pseudomonas aeruginosa A3. The description is as above. Type of series: cell-based. To be noted: A3, Table 5, 27° C., 18 hours, read-out: MIC. The protocol:
as §1, §2

For a further series, the system named is P. aeruginosa PST1. Described as above. Type of series: cell-based. To be noted: Pseudomonas aeruginosa, Table 5, 27° C., 18 hours. Here is the method: as §1, §2
Series [4] concerns Staphylococcus aureus FDA209P. The series is described as above. It is filed as cell-based. To be noted: Table 5, 27° C., 18 hours. The protocol:
as §1, §2

The next series has as its system E. coli K-12 LA290 R55. Described as above. Type of series: cell-based. To be noted: Escherichia coli, K12LA290R55, 18 h. Here is the method: as §1, §2
In series [5] the test system is Shigella dysenteriae JSI1910. Described as above. It is filed as cell-based. To be noted: JSI1910, 18 h. The protocol:
as §1, §2

In another series the test system is P. aeruginosa H9. Described as above. Type of series: cell-based. To be noted: Pseudomonas aeruginosa, H9, 18 h. Here is the method: as §1, §2
For series [6], the system named is Klebsiella pneumoniae PCI602. Described as above. It is filed as cell-based. To be noted: PCI602, Table 5, 27° C., 18 hours, read-out: MIC. Here is the method: as §1, §2
The subject of series [7] is clinically isolated strains of MRSA. The series is described as follows: Antibacterial MIC spectra against 50 clinically isolated strains of MRSA. Type of series: cell-based, methicillin-resistant Staphylococcus aureus. To be noted: Staphylococcus aureus; for MIC: read-out: Antibacterial MIC spectra; for MIC50: 50% of the 50 MRSA strains inhibited, read-out: MIC50; for MIC90: 90% of the 50 MRSA strains inhibited, read-out: MIC90. The protocol: as §1
Note:- MIC50 or MIC90 represents the concentration of tested
active compound at which 50% or 90% of the total numbers of the bacterial
strains tested were inhibited from their growth. DKB denotes dibekacin,
as §2

In brackets after ≈: the same amount, converted by molar mass. Read-outs that look alike come from different tables or passages of the source.

What is called LD50 is the dose at which mortality reaches 50%. As usually defined, the MIC is the smallest concentration in the dilution series that meets the test's criterion for growth inhibition. A word on the MIC50: it is the lowest concentration that inhibits either 50% of growth or 50% of the strains tested, depending on the study. What is called MIC90 is an inhibitory concentration at the 90% level, which refers to growth in some studies and to a panel of isolates in others.

With `NCC[C@H](O)C(=O)N[C@@H]1C[C@H](N)[C@@H](O[C@H]2O[C@H](CN)CC[C@H]2N)[C@@H](F)[C@H]1O[C@H]1O[C@H](CO)[C@@H](O)[C@H](N)[C@H]1N` [Compound XVIa, 2"-Amino-5,2"-dideoxy-5-epi-fluoroarbekacin], in “Solubility in water”, the Solubility entry is on record as “easily soluble in water”. Besides, the LD50 at 336 h in series [1] is over 100 mg/kg. Further, the MIC in series [2] is 1.56 µg/mL (≈ 2.82 µM); in the series with Proteus vulgaris OX19, 1.56 µg/mL (≈ 2.82 µM); with S. aureus Smith, at most 0.2 µg/mL; in the series on Salmonella typhi T-63 it was 0.78 µg/mL (≈ 1.41 µM); in the series on S. epidermidis 109 it was 0.78 µg/mL (≈ 1.41 µM); with Serratia marcescens (Table 5, 27° C., 18 hours, read-out: MIC), 1.56 µg/mL (≈ 2.82 µM). Further, the MIC with E. coli K-12 ML1629 was 3.13 µg/mL (≈ 5.65 µM); in the series with Bacillus subtilis PCI219, 0.39 µg/mL (≈ 0.704 µM); in the series on P. aeruginosa TI-13, 1.56 µg/mL (≈ 2.82 µM); in the series on E. coli JR66/W677, 3.13 µg/mL (≈ 5.65 µM); against Escherichia coli NIHJ, 0.78 µg/mL (≈ 1.41 µM); in series [3], 0.78 µg/mL (≈ 1.41 µM). In addition, the MIC turned out to be 12.5 µg/mL (≈ 22.6 µM) with P. aeruginosa PST1; 0.78 µg/mL (≈ 1.41 µM) in series [4]; 1.56 µg/mL (≈ 2.82 µM) against E. coli K-12 LA290 R55; 3.13 µg/mL (≈ 5.65 µM) in series [5]; 3.13 µg/mL (≈ 5.65 µM) in the series on P. aeruginosa H9; 1.56 µg/mL (≈ 2.82 µM) in series [6]. Also, in [7] (MRSA, 18 h), the MIC lay in the range of 0.39 to 3.13 µg/mL (≈ 0.704 to 5.65 µM). Further, in [7] (27° C., 18 hours), the MIC50 is 0.78 µg/mL (≈ 1.41 µM). Moreover, the MIC90 in series [7] (27° C., 18 hours) is 1.56 µg/mL (≈ 2.82 µM).
On to `NCC[C@H](O)C(=O)N[C@@H]1C[C@H](N)[C@@H](O[C@H]2O[C@H](CN)CC[C@H]2N)[C@@H](N)[C@H]1O[C@H]1O[C@H](CO)[C@@H](O)[C@H](N)[C@H]1N` [Compound XVIb, 2"-amino-5,2"-dideoxy-5-epi-aminoarbekacin], for which the Solubility entry in the series “Solubility in water” was “easily soluble in water”. In addition, in series [1], the LD50 at 336 h was over 100 mg/kg. The MIC in series [2] is 1.56 µg/mL (≈ 2.83 µM); in the series on Proteus vulgaris OX19, 1.56 µg/mL (≈ 2.83 µM); against S. aureus Smith, at most 0.2 µg/mL; against Salmonella typhi T-63, 0.78 µg/mL (≈ 1.42 µM); in the series with S. epidermidis 109, 0.39 µg/mL (≈ 0.708 µM); against Serratia marcescens (18 h) it was 3.13 µg/mL (≈ 5.68 µM). Besides, the minimal inhibitory concentration (MIC) against E. coli K-12 ML1629 was 1.56 µg/mL (≈ 2.83 µM); against Bacillus subtilis PCI219, at most 0.2 µg/mL; in the series on P. aeruginosa TI-13 it was 1.56 µg/mL (≈ 2.83 µM); against E. coli JR66/W677, 3.13 µg/mL (≈ 5.68 µM); in the series on Escherichia coli NIHJ it was 0.78 µg/mL (≈ 1.42 µM); in series [3], 0.39 µg/mL (≈ 0.708 µM). In addition, the MIC was 6.25 µg/mL (≈ 11.4 µM) in the series with P. aeruginosa PST1; at most 0.2 µg/mL in series [4]; 1.56 µg/mL (≈ 2.83 µM) in the series with E. coli K-12 LA290 R55; 3.13 µg/mL (≈ 5.68 µM) in series [5]; 3.13 µg/mL (≈ 5.68 µM) in the series on P. aeruginosa H9; 1.56 µg/mL (≈ 2.83 µM) in series [6]. Moreover, in [7] (range over 50 clinically isolated strains of MRSA, 27° C., 18 hours), the MIC lay in the range of 0.39 to 1.56 µg/mL (≈ 0.708 to 2.83 µM). Also, in [7] (27° C., 18 hours), the MIC50 was found to be 0.78 µg/mL (≈ 1.42 µM). In addition, the MIC90 in series [7] (27° C., 18 hours) turned out to be 1.56 µg/mL (≈ 2.83 µM).
`NC[C@@H]1CC[C@@H](N)[C@@H](O[C@H]2[C@H](O)[C@@H](O[C@H]3O[C@H](CO)[C@@H](O)[C@H](N)[C@H]3O)[C@H](N)C[C@@H]2N)O1` [DKB, 3',4'-dideoxykanamycin B, reference compound]: in series [7] (27° C., 18 hours), the MIC50 amounted to 50 µg/mL (≈ 111 µM) and the MIC90 was over 100 µg/mL.
